Experimental data from patent US7619005B2, “Methods for treating cognitive impairment in humans with Multiple Sclerosis” (Cognition Pharmaceuticals LLC, priority 2000, dated 2009).

What was measured:
normal subjects [1] = test: Phase I studies of l-methamphetamine: safety and tolerability
normal subjects [2] = test: CDR computerized cognitive assessment system, l-methamphetamine
Procedure: A randomized, double-blind, placebo-controlled, dose escalation study in human subjects, who were not suffering from an impairment in a memory or cognitive process (“normal subjects”), was conducted to assess the safety, tolerability and pharmacokinetics and improvement in cognitive processes, including memory, following the administration of l-methamphetamine (25 mg, 50 mg, 100 mg, 150 mg).
A selection of tasks from the CDR computerized cognitive assessment system was administered and parallel forms of the tests were presented on each testing session. […] All tasks were computer-controlled, the information was presented on high resolution screens, and the responses recorded via a response module containing two buttons, one marked ‘NO’ and the other ‘YES’. The tracking task additionally involved the use of a joystick. The test battery takes about 20-25 minutes to perform. The tests were administered in the following order: • Picture Presentation: A series of 20 pictures was presented on the screen at the rate of 1 every 3 seconds for the subject to remember. No data were recorded from this task. • Simple Reaction Time: The subject was instructed to press the ‘YES’ response button as quickly as possible every time the word ‘YES’ is presented on the screen. […] A series of digits was then presented in the center of the screen at the rate of 150 per minute and the subject was required to press the ‘YES’ button as quickly as possible every time the digit in the series matches the target digit. There were 45 targets in the series. The task lasted for 3 minutes. • Choice Reaction Time: Either the word ‘NO’ or the word ‘YES’ was presented on the screen and the subject was instructed to press the corresponding button as quickly as possible. There were 50 trials for which each stimulus word was chosen randomly with equal probability and there was a varying inter-stimulus interval. • Rapid Visual Information Processing: A series of digits was presented on the screen at the rate of 100 per minute. The subject had to detect targets consisting of consecutive sequences of either three odd digits or three even digits, and to report them by pressing the ‘YES’ button as quickly as possible. There were 32 targets. The task lasted for 4 minutes. • Tracking: The subject used a joystick to track a randomly moving target on the screen for one minute. The distance off-target per second was recorded. • Spatial Working Memory: A picture of a house was presented on the screen with four of its nine windows lit. The subject had to memorize the position of the lit windows. For each of the 36 subsequent presentations of the house, the subject was required to decide whether or not the one window that was lit was also lit in the original presentation. […]

Long-Evans rats [3] = test: Passive Avoidance test, injection immediately after training; conditions: i.p. immediately after training; p values=0.007 (C105), 0.0004 (d-amphetamine), 0.03 (SN522)
Long-Evans rats [4] = test: Locomotor activity, activity monitoring chambers; format: in vivo, rat
Procedure: Activity monitoring was conducted in a Plexiglas open-field box measuring 30 by 30 cm. […] The location of the animal within the cage was detected by breaks in the infrared light beams. Light beams status information was collected and rapidly analyzed by a computerized activity monitoring system (VersaMax System, Accuscan Instruments.)
In order to determine whether SN522 had any adverse effects on locomotor or exploratory activity, rats were injected with saline or 0.25, 0.5, 2.5 and 5.0 mg/kg of SN522 and immediately afterwards placed into the activity monitoring chambers for a period of three hours.

Long-Evans rats [5] = test: Water Maze acquisition; format: in vivo, rat; conditions: higher dose (0.5 mg/kg i.p.); p>0.05
Procedure: Water Maze testing (Morris, R., J. Neurosci Methods 11:47-60 (1984)) was conducted in a galvanized steel pool, painted white, measuring 180 cm in diameter and 60 cm in height. The pool was equipped with a removable circular platform (10 cm in diameter) made of clear Plexiglas. The pool was filled with water (26° C.) to a level of 1 cm above the surface of the platform. Nontoxic white paint was added to the water to obscure the platform's appearance. The pool was divided conceptually into four quadrants and the platform was located in the NW quadrant 30 cm from the pool wall. Extramaze cues were provided by large geometric shapes adhered to curtains that surrounded two sides of the pool, and by shelving units, a sink, and posters on the visible walls.
The training procedure involved placing the rat into the water, with the rat's head facing the wall of the pool, at one of four different starting points. The rat was allowed 60 seconds to locate the hidden platform. […] After 15 seconds spent on the platform at the end of each trial, the rat was removed from the pool and injected with saline or SN522 (0.25 and 0.5 mg/kg, i.p.). The rat was dried, and returned to its home cage. One trail was conducted each day for 10 days. The latency to reach the platform (escape latency) was recorded on each days training trial.

normal subjects [6] = test: Phase I studies of l-methamphetamine: RAVLT word recall
scopolamine treated rats = test: Passive Avoidance in scopolamine treated rats (memory impairment); format: in vivo, rat
Long-Evans rats [7] = test: Tailflick test of analgesia (SN522); format: in vivo, rat; conditions: 0.25, 0.5, 2.5 and 5.0 mg/kg i.p.; 15, 30, 60 minutes
Procedure: The tail-flick response was assessed using a radiant heat tail flick monitor (Accuscan Instruments model TFS) equipped with a radiant heat element and two light beam sensors to detect tail movement.
In order to determine whether SN522 has any analgesic properties, rats (n=10 per treatment group) were injected with saline or SN522 (0.25, 0.5, 2.5 and 5.0 mg/kg, i.p.) and tested at four time points: immediately prior to injection, and again 15, 30, and 60 minutes following drug administration for a tail flick response (D'Amour, F. E., et al., J. Pharmacol. Exp. Ther. 72:174-179 (1941)). To test the tail-flick, the animal was placed on top of the Tail-Flick monitor and gently held in place with a cotton towel. The tail of the animal was placed in a shallow groove lying between the two sensors and over the top of the radiant heat wire. The heat element was activated, and the latency for the animal to flick its tail out of the groove and away from the heat source was automatically recorded via activation of the sensors. The intensity of the heat source was adjusted so that the animal flicked its tail within 3-4 seconds. A 10 second cutoff was imposed to avoid tissue damage. The animal was returned to its home cage immediately following testing.

For `CN[C@H](C)Cc1ccccc1` [SN522, levo-methamphetamine], the tolerability (normal subjects [1]; 150 mg dose, a few subjects in the second Phase I trial) was “not well tolerated”, the tolerability (normal subjects [1]; first and second Phase I trials (1-100 mg)) was “generally well tolerated” and the “Picture Recognition-Sensitivity Index vs placebo” value (normal subjects [2]; 25 mg (p=0.0177) and 150 mg (p=0.0254) (FIG. 36)) was “significant benefits”. For the same compound, the “Information Processing False Alarms vs placebo” value (normal subjects [2]; 50 mg (p=0.0002), 100 mg (p=0.0001) and 150 mg (p=0.0001) (FIG. 38)) was “significant decrements against placebo”, the “Information Processing Targets Detected vs placebo” value (normal subjects [2]; 100 mg (p=0.0002) and 150 mg (p=0.0001) (FIG. 37)) was “significant benefits” and the “speed of response (Total Speed score)” value (normal subjects [2]; 25, 50, 100, 150 mg (FIG. 35)) was “dose-dependent effect on speed of response”. For the same compound, the “dose that significantly improved performance on the passive avoidance task” value (Long-Evans rats [3]) was 0.5 mg/kg, the “activity relative to saline control” value (Long-Evans rats [4]; 0.5 mg/kg, p=0.028) was “only modest increases in activity” and the “motor behavior (FIG. 23 description)” value (Long-Evans rats [4]; 0.25 and 0.5 mg/kg ip) was “no or modest changes in motor behavior”. The “activity relative to saline control” value (Long-Evans rats [4]; 2.5 and 5.0 mg/kg, p<0.001) was “small, but significant increases in activity”, the “activity (FIG. 23 description)” value (Long-Evans rats [4]; doses ten times over the therapeutic doses (2.5, 5.0 mg/kg ip)) was “only mild increases in activity” and the “acquisition (escape latency) compared with saline group” value (Long-Evans rats [5]) was “did not reveal any statistical differences”. The RAVLT memory scores (normal subjects [6]; first Phase I study (1, 4, 16, 32 mg)) was “No difference in memory scores”, the “RAVLT mean values vs placebo” value (normal subjects [6]; second Phase I study (25, 50, 100 mg) (FIG. 34)) was “all dose groups have mean values greater than placebo at 30 minutes and 24 hours” and the “performance vs animals treated with scopolamine and saline” value (scopolamine treated rats; 0.25, 0.5 and 1.0 mg/kg, p values=0.01, 0.04 and 0.007) was “performed significantly better than animals treated with scopolamine and saline”. For the same compound, the “alleviation of scopolamine impairment (step-through latency)” value (scopolamine treated rats; SN522 i.p. immediately after training, log rank p=0.02 (FIG. 32)) was “effective at alleviating the impairment in the scopolamine-injected animals” and the “pain sensitivity (tail flick latency)” value (Long-Evans rats [7]) was “does not alter pain sensitivity”.
